ChEMBL document CHEMBL1201862, “PubChem BioAssay data set” (2004)
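The compound was tested at five concentrations on cells cultured in 96-well plates, with a 48-hour exposure period. Abbreviation: GI50, concentration required for 50% inhibition of growth.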 Active and inactive are the calls of the source. Cut-off read from the data, not from the text of the source: active = GI50 up to about 1.1 µM and inactive = higher.

Key:
Experiment in all cases: growth of human tumour cells (NCI), 48 h
CCRF-CEM = system: CCRF-CEM
DU-145 = system: DU-145
EKVX = system: EKVX
HCT-116 = system: HCT-116
HL-60 = system: HL-60
HOP-62 = system: HOP-62
KM12 = system: KM12
LOX IMVI = system: LOX IMVI
MCF7 = system: MCF7
MDA-MB-231 = system: MDA-MB-231
MDA-N = system: MDA-N
NCI-H23 = system: NCI-H23
OVCAR-4 = system: OVCAR-4
RPMI-8226 = system: RPMI-8226
RXF 393 = system: RXF 393
SF-295 = system: SF-295
SK-MEL-5 = system: SK-MEL-5
SNB-19 = system: SNB-19
T47D = system: T47D
UO-31 = system: UO-31

Measured: GI50

Cn1c(=O)cc(NCCc2ccccc2)[nH]c1=O
inactive: CCRF-CEM 31.7 µM | DU-145 52 µM | EKVX 54.7 µM | HCT-116 34.2 µM | HL-60 > 10 µM | HOP-62 30 µM | KM12 15.3 µM | LOX IMVI 46.6 µM | MCF7 19.7 µM | MDA-MB-231 12.3 µM | MDA-N 3.7 µM | NCI-H23 91.8 µM | OVCAR-4 > 100 µM | RPMI-8226 6.12 µM | RXF 393 57.8 µM | SF-295 20.9 µM | SK-MEL-5 18.8 µM | SNB-19 77.8 µM | T47D 54.5 µM | UO-31 34.1 µM

CCCCn1c2c(n(CCCC)c1=S)-c1c(n(CCCC)c(=S)n1CCCC)SSc1c(n(CCCC)c(=S)n1CCCC)-c1c(n(CCCC)c(=S)n1CCCC)SSc1c(n(CCCC)c(=S)n1CCCC)-c1c(n(CCCC)c(=S)n1CCCC)SS2
inactive: CCRF-CEM 1.19 µM | DU-145 29.8 µM | EKVX 5.37 µM | HCT-116 4.72 µM | HL-60 1.75 µM | HOP-62 15.2 µM | KM12 19.4 µM | LOX IMVI 4 µM | MCF7 12.8 µM | MDA-MB-231 2.24 µM | MDA-N 7.41 µM | NCI-H23 16.3 µM | OVCAR-4 1.73 µM | RPMI-8226 1.99 µM | RXF 393 2.72 µM | SF-295 10.4 µM | SK-MEL-5 12 µM | SNB-19 11.4 µM | T47D 1.5 µM | UO-31 6.47 µM

COc1ccc(-c2nc(-c3cnccn3)n(C3OC(CO)C(O)C(O)C3O)n2)cc1 (stereo not given)
inactive: CCRF-CEM > 100 µM | DU-145 > 100 µM | EKVX > 100 µM | HCT-116 > 100 µM | HL-60 > 100 µM | HOP-62 > 100 µM | KM12 > 100 µM | LOX IMVI > 100 µM | MCF7 > 100 µM | MDA-MB-231 > 100 µM | MDA-N > 100 µM | NCI-H23 > 100 µM | OVCAR-4 > 100 µM | RPMI-8226 > 100 µM | RXF 393 > 100 µM | SF-295 > 100 µM | SK-MEL-5 > 100 µM | SNB-19 > 100 µM | T47D > 100 µM | UO-31 > 100 µM

CC(C)(C)c1cc2c(c(C(C)(C)C)c1O)CC(=O)O2
inactive: CCRF-CEM 29.6 µM | DU-145 47.5 µM | EKVX 30.8 µM | HCT-116 30.1 µM | HL-60 34.6 µM | HOP-62 30.3 µM | KM12 20.7 µM | LOX IMVI 38.5 µM | MCF7 35.6 µM | MDA-MB-231 24.5 µM | MDA-N 34.9 µM | NCI-H23 19.8 µM | OVCAR-4 27.7 µM | RPMI-8226 23.6 µM | RXF 393 22.1 µM | SF-295 32.2 µM | SK-MEL-5 17.1 µM | SNB-19 34.7 µM | T47D 23.2 µM | UO-31 26.3 µM

CCCCCNC(=O)c1cc2cc(CCl)ccc2oc1=O
inactive: CCRF-CEM > 100 µM | DU-145 2.26 µM | EKVX 4.41 µM | HCT-116 3.84 µM | HL-60 1.9 µM | HOP-62 5.69 µM | KM12 10.2 µM | LOX IMVI 17.3 µM | MCF7 5.97 µM | MDA-MB-231 1.97 µM | MDA-N 9.42 µM | NCI-H23 2.62 µM | OVCAR-4 7.23 µM | RPMI-8226 10 µM | SF-295 6.56 µM | SK-MEL-5 16.6 µM | SNB-19 15.9 µM | T47D 1.3 µM | UO-31 1.63 µM
active: RXF 393 0.798 µM

CC(C)=CC1C(C(=O)Oc2ccccc2C(C)C)C1(C)C (stereo not given)
inactive: CCRF-CEM 22.8 µM | DU-145 40.5 µM | EKVX 17.3 µM | HCT-116 20.8 µM | HL-60 19.1 µM | HOP-62 27.9 µM | KM12 18.1 µM | LOX IMVI 17.7 µM | MCF7 19.8 µM | MDA-MB-231 22.9 µM | MDA-N 26.4 µM | NCI-H23 23.8 µM | OVCAR-4 52 µM | RPMI-8226 19.3 µM | RXF 393 16.9 µM | SF-295 17.7 µM | SK-MEL-5 18.2 µM | SNB-19 34.3 µM | T47D 19.8 µM | UO-31 17.7 µM

CC(C)(C)[Si](C)(C)OCC1OC(n2cnc3c(N)ncnc32)C(O)C1O (stereo not given)
inactive: CCRF-CEM 95.9 µM | DU-145 > 100 µM | EKVX > 100 µM | HCT-116 > 100 µM | HL-60 > 100 µM | HOP-62 > 100 µM | KM12 37.3 µM | LOX IMVI > 100 µM | MCF7 > 100 µM | MDA-MB-231 96.4 µM | MDA-N > 100 µM | NCI-H23 71 µM | OVCAR-4 > 100 µM | RPMI-8226 81.3 µM | RXF 393 36.7 µM | SF-295 > 100 µM | SK-MEL-5 26.5 µM | SNB-19 > 100 µM | T47D 24.4 µM | UO-31 65.6 µM

Cc1ccc2nc(/C=N/c3ccc(Cl)cc3)cc(C)c2c1
active: CCRF-CEM 1.06 µM | DU-145 0.659 µM | HCT-116 1.08 µM | KM12 0.269 µM | LOX IMVI 0.329 µM | SF-295 0.798 µM | UO-31 0.381 µM
inactive: EKVX 14.4 µM | HL-60 1.14 µM | HOP-62 2.26 µM | MCF7 4.7 µM | MDA-MB-231 4.94 µM | MDA-N 1.3 µM | NCI-H23 9.91 µM | OVCAR-4 20.3 µM | RPMI-8226 1.24 µM | RXF 393 24.7 µM | SK-MEL-5 2.29 µM | SNB-19 27.6 µM | T47D 2.54 µM

CC(O)c1cc2c(s1)C(=O)c1scc(C(C)O)c1C2=O (stereo not given)
active: DU-145 0.614 µM | EKVX 0.991 µM | HCT-116 0.659 µM | HL-60 0.646 µM | HOP-62 0.973 µM | LOX IMVI 0.172 µM | MCF7 0.413 µM | MDA-MB-231 0.316 µM | MDA-N 0.186 µM | NCI-H23 0.191 µM | OVCAR-4 0.745 µM | RPMI-8226 0.579 µM | RXF 393 0.881 µM | SF-295 0.168 µM | SK-MEL-5 0.156 µM | SNB-19 0.667 µM | UO-31 0.337 µM
inactive: CCRF-CEM 1.18 µM | KM12 1.79 µM | T47D 1.95 µM

OC(CCN1CCN(CCOC(c2ccc(F)cc2)c2ccc(F)cc2)CC1)c1ccccc1 (stereo not given)
inactive: CCRF-CEM 19 µM | DU-145 17.3 µM | EKVX 12.9 µM | HCT-116 13.4 µM | HL-60 15.9 µM | HOP-62 18 µM | KM12 18.5 µM | LOX IMVI 14.6 µM | MCF7 16.6 µM | MDA-MB-231 14.6 µM | MDA-N 15.1 µM | NCI-H23 16.6 µM | OVCAR-4 16.1 µM | RPMI-8226 15.7 µM | RXF 393 11.1 µM | SF-295 18.3 µM | SK-MEL-5 7.6 µM | SNB-19 16.9 µM | T47D 12.3 µM | UO-31 3.37 µM
